Results taken from patent publication US4086417A, “Cytidine nucleotide derivatives” (Asahi Kasei Kogyo Kabushiki Kaisha, priority 1974, dated 1978).
Where a name gives a salt, the structure may show the parent alone.

System: leukemia L-1210
Assay: Antitumour activity in mice inoculated intraperitoneally with leukemia L-1210 (survival, T/C)
Type: in vivo, CDF-1 male mice
Conditions: for Antileukemial effect on mice (in words): L-1210 in mice, conclusions in words; for response vs control in vivo at 100 mg/kg / response vs control in vivo at 200 mg/kg / response vs control in vivo at 400 mg/kg: Mus musculus, L1210, ip, directly after injection of L-1210, after 2 days and after 6 days; for response vs control in vivo at 100 mg/kg: 100 mg/kg i.p.; for response vs control in vivo at 200 mg/kg: 200 mg/kg i.p.; for response vs control in vivo at 400 mg/kg: 400 mg/kg i.p.
Description: The antitumour activity for mice of the test material was evaluated by means of survival rate comparison, T/C (%), that is, 100 times the mean survival period of the groups injected with the test material divided by the mean survival period of the comparison groups which were not injected with the test material.
Further, for comparison, the following materials were also subjected to the same biological test: […]

| SMILES | Antileukemial effect on mice (in words) | response vs control in vivo at 100 mg/kg | response vs control in vivo at 200 mg/kg | response vs control in vivo at 400 mg/kg |
| --- | --- | --- | --- | --- |
| Nc1ccn([C@@H]2O[C@H](COP(=O)(O)O)[C@@H](O)[C@@H]2O)c(=O)n1 [Ara-C-5'-p.circle., 1-β-D-arabinofuranosylcytosine-5'-phosphate] | inferior to 1-β-D-arabinofuranosylcytosine in antileukemical effect on mice | 119% | 131% | 143% |
| CC(=O)Nc1ccn([C@@H]2O[C@H](COP(=O)(O)O)[C@@H](O)[C@@H]2O)c(=O)n1 [N^4 -Acetyl-5'-PNa] |  | 101% | 99% | 99% |
| CC(=O)Nc1ccn([C@@H]2O[C@H](CO)[C@@H](O)[C@@H]2O)c(=O)n1 [N^4 -Acetyl-Ara-C] |  | 125% | 125% | 125% |
| CCCCC/C=C\C/C=C\C/C=C\C/C=C\CCCC(=O)Nc1ccn([C@@H]2O[C@H](COP(=O)(O)O)[C@@H](O)[C@@H]2O)c(=O)n1 [N^4 -Arachidonoyl-5'-PNa, N^4-arachidonoyl-1-β-D-arabinofuranosylcytosine-5'-phosphate monosodium] |  | 274% | 148% | 115% |
| CCCCC/C=C\C/C=C\C/C=C\C/C=C\CCCC(=O)Nc1ccn([C@@H]2O[C@H](CO)[C@@H](O)[C@@H]2O)c(=O)n1 [N^4 -Arachidonoyl-Ara-C] |  | 269% | 137% | 114% |
| CCCCCCCCCCCCCCCCCCCC(=O)Nc1ccn([C@@H]2O[C@H](COP(=O)(O)O)[C@@H](O)[C@@H]2O)c(=O)n1 [N^4 -Arachidoyl-5'-PNa, N^4-arachidoyl-1-β-D-arabinofuranosylcytosine-5'-phosphate monosodium] |  | 320% | 130% | 106% |
| CCCCCCCCCCCCCCCCCCCC(=O)Nc1ccn([C@@H]2O[C@H](CO)[C@@H](O)[C@@H]2O)c(=O)n1 [N^4 -Arachidoyl-Ara-C] |  | 313% | 128% | 105% |
| CCCCCCCCCCCCCCCCCCCCCC(=O)Nc1ccn([C@@H]2O[C@H](COP(=O)(O)O)[C@@H](O)[C@@H]2O)c(=O)n1 [N^4 -Behenoyl-5'-PNa] |  | 316% | 280% | 270% |
| CCCCCCCCCCCCCCCCCCCCCC(=O)Nc1ccn([C@@H]2O[C@H](CO)[C@@H](O)[C@@H]2O)c(=O)n1 [N^4 -Behenoyl-Ara-C] |  | 313% | 260% | 256% |
| CCCC(=O)Nc1ccn([C@@H]2O[C@H](COP(=O)(O)O)[C@@H](O)[C@@H]2O)c(=O)n1 [N^4 -Butyryl-5'-PNa] |  | 105% | 102% | 100% |
| CCCC(=O)Nc1ccn([C@@H]2O[C@H](CO)[C@@H](O)[C@@H]2O)c(=O)n1 [N^4 -Butyryl-Ara-C] |  | 131% | 131% | 139% |
| CCCCCC(=O)Nc1ccn([C@@H]2O[C@H](COP(=O)(O)O)[C@@H](O)[C@@H]2O)c(=O)n1 [N^4 -Caproyl-5'-PNa] |  | 103% | 105% | 101% |
| CCCCCC(=O)Nc1ccn([C@@H]2O[C@H](CO)[C@@H](O)[C@@H]2O)c(=O)n1 [N^4 -Caproyl-Ara-C] |  | 125% | 133% | 150% |
| CCCCCCCCCC(=O)Nc1ccn([C@@H]2O[C@H](COP(=O)(O)O)[C@@H](O)[C@@H]2O)c(=O)n1 [N^4 -Capryl-5'-PNa] |  | 103% | 102% | 98% |
| CCCCCCCCCC(=O)Nc1ccn([C@@H]2O[C@H](CO)[C@@H](O)[C@@H]2O)c(=O)n1 [N^4 -Capryl-Ara-C] |  | 159% | 188% | > 284% |
| CCCCCCCC(=O)Nc1ccn([C@@H]2O[C@H](COP(=O)(O)O)[C@@H](O)[C@@H]2O)c(=O)n1 [N^4 -Caprylyl-5'-PNa] |  | 103% | 101% | 99% |
| CCCCCCCC(=O)Nc1ccn([C@@H]2O[C@H](CO)[C@@H](O)[C@@H]2O)c(=O)n1 [N^4 -Caprylyl-Ara-C] |  | 123% | 127% | 163% |

| SMILES | Antileukemial effect on mice (in words) | response vs control in vivo at 100 mg/kg | response vs control in vivo at 200 mg/kg | response vs control in vivo at 400 mg/kg |
| --- | --- | --- | --- | --- |
| CCCCCCCCCCCC(=O)Nc1ccn([C@@H]2O[C@H](COP(=O)(O)O)[C@@H](O)[C@@H]2O)c(=O)n1 [N^4 -Lauroyl-5'-PNa] |  | 110% | 115% | 115% |
| CCCCC/C=C\C/C=C\CCCCCCCC(=O)Nc1ccn([C@@H]2O[C@H](COP(=O)(O)O)[C@@H](O)[C@@H]2O)c(=O)n1 [N^4 -Linoleoyl-5'-PNa] |  | 275% | 145% | 120% |
| CCCCC/C=C\C/C=C\CCCCCCCC(=O)Nc1ccn([C@@H]2O[C@H](CO)[C@@H](O)[C@@H]2O)c(=O)n1 [N^4 -Linoleoyl-Ara-C] |  | 268% | 140% | 112% |
| CCCCCCCCCCCCCC(=O)Nc1ccn([C@@H]2O[C@H](COP(=O)(O)O)[C@@H](O)[C@@H]2O)c(=O)n1 [N^4 -Myristoyl-5'-PNa, N^4 -Myristoyl-1-β-D-arabinofuranosylcytosine-5'-phosphate monosodium] |  | > 219% | > 261% | 93% |
| CCCCCCCCCCCCCC(=O)Nc1ccn([C@@H]2O[C@H](CO)[C@@H](O)[C@@H]2O)c(=O)n1 [N^4 -Myristoyl-Ara-C, N^4-myristoyl-1-β-D-arabinofuranosylcytosine] |  | 206% | 127% | 90% |
| CCCCCCCCCCCCCCCCCCC(=O)Nc1ccn([C@@H]2O[C@H](COP(=O)(O)O)[C@@H](O)[C@@H]2O)c(=O)n1 [N^4 -Nonadecanoyl-5'-PNa, N^4-nonadecanoyl-1-β-D-arabinofuranosylcytosine-5'-phosphate monosodium] |  | 385% | 232% | 102% |
| CCCCCCCCCCCCCCCCCCC(=O)Nc1ccn([C@@H]2O[C@H](CO)[C@@H](O)[C@@H]2O)c(=O)n1 [N^4 -Nonadecanoyl-Ara-C] |  | 382% | 216% | 134% |
| CCCCCCCCCCCCCCC(=O)Nc1ccn([C@@H]2O[C@H](COP(=O)(O)O)[C@@H](O)[C@@H]2O)c(=O)n1 [N^4 -Pentadecanoyl-5'-PNa] |  | > 302% | > 287% | 86% |
| CCCCCCCCCCCCCCC(=O)Nc1ccn([C@@H]2O[C@H](CO)[C@@H](O)[C@@H]2O)c(=O)n1 [N^4 -Pentadecanoyl-Ara-C] |  | 302% | 287% | 91% |
| CCC(=O)Nc1ccn([C@@H]2O[C@H](COP(=O)(O)O)[C@@H](O)[C@@H]2O)c(=O)n1 [N^4 -Propionyl-5'-PNa] |  | 99% | 100% | 101% |
| CCC(=O)Nc1ccn([C@@H]2O[C@H](CO)[C@@H](O)[C@@H]2O)c(=O)n1 [N^4 -Propionyl-Ara-C] |  | 131% | 131% | 135% |
| CCCCC(=O)Nc1ccn([C@@H]2O[C@H](COP(=O)(O)O)[C@@H](O)[C@@H]2O)c(=O)n1 [N^4 -Valeryl-5'-PNa] |  | 101% | 99% | 101% |
| CCCCC(=O)Nc1ccn([C@@H]2O[C@H](CO)[C@@H](O)[C@@H]2O)c(=O)n1 [N^4 -Valeryl-Ara-C] |  | 133% | 171% | 191% |
| CCCCCCCCCCCCCCCCCC(=O)Nc1ccn([C@@H]2O[C@H](COP(=O)(O)O)[C@@H](O)[C@@H]2O)c(=O)n1 [N^4-stearoyl-1-β-D-arabinofuranosylcytosine-5'-phosphate] | had the highest antileukemial effect on mice |  |  |  |
| CCCCCCCCCCCCCCCCCC(=O)Nc1ccn([C@@H]2O[C@H](CO)[C@@H](OP(=O)(O)O)[C@@H]2OP(=O)(O)O)c(=O)n1 [N^4-stearoyl-Ara-C-2',3'-(PNa)2] |  | 184% | 119% | 103% |
| CCCCCCCCCCCCCCCCCC(=O)Nc1ccn([C@@H]2O[C@H](CO)[C@@H](O)[C@@H]2OP(=O)(O)O)c(=O)n1 [N^4-stearoyl-Ara-C-2'-PNa, N^4-stearoyl-1-β-D-arabinofuranosylcytosine-2'-phosphate monosodium salt] |  | 228% | 146% | 121% |
| CCCCCCCCCCCCCCCCCC(=O)Nc1ccn([C@@H]2O[C@H](COP(=O)(O)O)[C@@H](OP(=O)(O)O)[C@@H]2O)c(=O)n1 [N^4-stearoyl-Ara-C-3',5'-(PNa)2] |  | 215% | 138% | 107% |
